In brackets after ≈: the same amount, converted by molar mass. Activity calls are given as the source filed them. The calls are words filed in the database; no cut-off is given here.
Experiments:
Rattus norvegicus [1] = species on record: Rattus norvegicus; assay: Inhibition of P-gp in rat jejuna mucosa crude membrane fractions assessed as reduction in ATPase activity preincubated for 5 mins followed by ATP addition and measured after 30 mins; type: cell membranes
[2] = Ratio of drug level in blood to plasma (unknown origin) at 500 nM by LC-MS/MS analysis; type: ADME, cell-free; details: blood and plasma
[3] = Stability in human liver microsomes at 10 uM in presence of NADPH by LC-MS/MS analysis; type: ADME, Microsome; details: read-out: Stability
[4] = Protein binding in plasma (unknown origin) at 10 to 100 uM after 4 hrs by LC-MS/MS analysis; type: ADME, cell-free; details: read-out: PPB
[5] = Half life in rat liver microsomes at 10 uM in presence of NADPH by LC-MS/MS analysis; type: ADME, Microsome
[6] = Stability in rat liver microsomes at 10 uM in presence of NADPH by LC-MS/MS analysis; type: ADME, Microsome; details: read-out: Stability
[7] = n-Octanol-PBS buffer distribution coefficient, log D of the compound after 4 hrs by LC-MS/MS analysis; type: physicochemical
[8] = Hepatic extraction ratio in human liver microsomes at 10 uM in presence of NADPH by LC-MS/MS analysis; type: ADME, Microsome; details: read-out: ERH
Rattus norvegicus [9] = species on record: Rattus norvegicus; assay: Inhibition of P-gp in rat jejuna mucosa crude membrane fractions assessed as ATPase activity preincubated for 5 mins followed by ATP addition and measured after 30 mins; type: cell membranes
[10] = Aqueous solubility of compound after 5 hrs at 25 degC by LC-MS/MS analysis; type: physicochemical; details: aqueous medium (not specified further)
[11] = Hepatic clearance in human liver microsomes at 10 uM in presence of NADPH by LC-MS/MS analysis; type: ADME, Microsome
[12] = Hepatic clearance in rat liver microsomes at 10 uM in presence of NADPH by LC-MS/MS analysis; type: ADME, Microsome
[13] = n-Octanol/water partition co-efficient, log P of the compound after 4 hrs by LC-MS/MS analysis; type: physicochemical
[14] = Intrinsic clearance in human liver microsomes assessed per mg protein at 10 uM in presence of NADPH by LC-MS/MS analysis; type: ADME, Microsome; details: read-out: CLH
[15] = Hepatic extraction ratio in rat liver microsomes at 10 uM in presence of NADPH by LC-MS/MS analysis; type: ADME, Microsome; details: read-out: ERH
[16] = Hepatic intrinsic clearance in rat liver microsomes assessed per kg body weight at 10 uM in presence of NADPH by LC-MS/MS analysis; type: ADME, Microsome
[17] = Hepatic intrinsic clearance in human liver microsomes assessed per kg body weight at 10 uM in presence of NADPH by LC-MS/MS analysis; type: ADME, Microsome
[18] = Half life in human liver microsomes at 10 uM in presence of NADPH by LC-MS/MS analysis; type: ADME, Microsome
[19] = Intrinsic clearance in rat liver microsomes assessed per mg protein at 10 uM in presence of NADPH by LC-MS/MS analysis; type: ADME, Microsome; details: read-out: CLH

inhibition (Rattus norvegicus [1]) | blood plasma ratio at 0.5 µM [2] | remaining at 10 µM [3] | fraction unbound at 4 h, up to 100 µM [4] | half-life at 10 µM [5] | remaining at 10 µM [6] | logD at 4 h [7] | hepatic extraction ratio at 10 µM [8] | Activity (Rattus norvegicus [9]) | solubility at 5 h [10] | CLH [11] | CLH [12] | logP at 4 h [13] | microsomal CLint at 10 µM [14] | hepatic extraction ratio at 10 µM [15] | CLH [16] | CLH [17] | half-life at 10 µM [18] | microsomal CLint at 10 µM [19] | SMILES
Active |  |  |  |  |  |  |  |  |  |  |  |  |  |  |  |  |  |  | O[C@@H](COc1cccc2ncccc12)CN1CCN([C@@H]2c3ccccc3[C@@H]3[C@H](c4ccccc42)C3(F)F)CC1
 | ≤ 1.2 |  |  |  |  |  |  |  |  |  |  |  |  |  |  |  |  |  | CC(C)NCC(O)COc1ccc(CC(N)=O)cc1 (stereo not given) [ATENOLOL]
 | ≤ 1.4 | > 73% | < 0.01 | 1.16 h | > 73% | 0.08 | 0.5 | 5.5 to 6.1 µM/min | 5.8 µg/mL (≈ 7.02 µM) | 10.6 mL/min/kg | 21.7 mL/min/kg | 1.06 | 19 µL/min/mg | 0.39 | 35.9 mL/min/kg | 22.3 mL/min/kg | 1.35 h | 20 µL/min/mg | CCCCCCCC(c1cn([C@@H]2O[C@H](CO)[C@@H](O)[C@H](O)[C@H]2O)c2ccc(Br)cc12)c1cn([C@@H]2O[C@H](CO)[C@@H](O)[C@H](O)[C@H]2O)c2ccc(Br)cc12

From ChEMBL document CHEMBL4400544, “Pharmacokinetic evaluation of medicinally important synthetic N,N' diindolylmethane glucoside: Improved synthesis and metabolic stability” (Bioorg Med Chem Lett, 2019)
